Data taken from patent publication US9394289B2, “Inhibitors of c-fms kinase” (Janssen Pharmaceutica NV, priority 2006, dated 2016).
Counter-ions that a name gives are not always drawn.

Key:
[1] = system: mouse bone-marrow derived macrophages (BMDM); test: CSF-1-driven mouse bone-marrow derived macrophages proliferation assay (BrDU incorporation); format: cell-based; details: Mus musculus, BMDM, 30 hrs culture, read-out: mCSF driven proliferation BMDM (Mouse) IC-50
Experimental: CSF-1-Driven Mouse Bone-Marrow Derived Macrophages Assay
Macrophages are derived by culturing mouse bone marrow in alpha-MEM supplemented with 10% FCS and 50 ng/ml recombinant mouse CSF-1 in bacteriologic dishes. On the sixth day, macrophages are detached from dishes, washed, and resuspended to 0.05 million cells/ml in alpha-MEM containing 10% FCS. One hundred ul of cell suspension are distributed per well into 96 well culture plates. Wells are further supplemented with the addition of 50 ul media containing 15 ng/ml CSF-1, 3 uM Indomethacin, and 3× of a dilution series of test compounds. The cells are cultured for 30 hrs at 37 degrees and 5% CO2. During the final six hours, cultures are supplemented with an additional 30 ul of media containing a 1:500 dilution of bromodeoxyuridine (BrDU). At the end of the culture period, the plates are spun at 1000 RPM for 1 minute and 130 ul of media is removed with a pipet and replaced with 150 ul of fixative solution for 1 hour @ room temperature. The fixative is then dispelled from the plates and the plates allowed to air dry. Incorporation of BrDU into the fixed, dried cells is quantified using a specific ELISA.

c-fms = c-fms (Homo sapiens (Human), UniProt P07333); test: Autophosphorylation fluorescence polarization competition immunoassay for c-fms inhibition; format: biochemical; details: averages of three independent measurements; table head says 1 nM c-fms, method says 10 nM c-fms, 1 mM ATP; read-out: 1 nM c-fms; peptide Pi assay IC-50
Experimental: Fluorescence Polarization Competition Immunoassay
The assay buffer used was 100 mM 4-(2-hydroxyethyl)piperazine 1-ethanesulfonic acid (HEPES), pH 7.5, 1 mM 1,4-dithio-DL-threitol (DTT), 0.01% (v/v) Tween-20. Compounds were diluted in assay buffer containing 4% dimethylsulfoxide (DMSO) just prior to the assay. To each well, 5 μL of compound were added followed by the addition of 3 μL of a mix containing 33 nM c-fms (Johnson & Johnson PRD) and 16.7 mM MgCl2 (Sigma) in assay buffer. The kinase reaction was initiated by adding 2 μL of 5 mM ATP (Sigma) in assay buffer. […] Control reactions were ran in each plate: in positive and negative control wells, assay buffer (made 4% in DMSO) was substituted for the compound; in addition, positive control wells received 1.2 μL of 50 mM ethylenediaminetetraaceticacid (EDTA).
The plates were incubated at room temperature for 45 min. At the end of the incubation, the reaction was quenched with 1.2 μL of 50 mM EDTA (EDTA was not added to the positive control wells at this point; see above). Following a 5-min incubation, each well received 10 μL of a 1:1:3 mixture of anti-phosphotyrosine antibody, 10×, PTK green tracer, 10× (vortexed), FP dilution buffer, respectively (all from PanVera, cat. #P2837). The plate was covered, incubated for 30 min at room temperature and the fluorescence polarization was read on the Analyst. The instrument settings were: 485 nm excitation filter; 530 nm emission filter; Z height: middle of well; G factor: 0.93. […] The reported IC50 values are averages of three independent measurements.

Sequence of c-fms (P07333 20-972): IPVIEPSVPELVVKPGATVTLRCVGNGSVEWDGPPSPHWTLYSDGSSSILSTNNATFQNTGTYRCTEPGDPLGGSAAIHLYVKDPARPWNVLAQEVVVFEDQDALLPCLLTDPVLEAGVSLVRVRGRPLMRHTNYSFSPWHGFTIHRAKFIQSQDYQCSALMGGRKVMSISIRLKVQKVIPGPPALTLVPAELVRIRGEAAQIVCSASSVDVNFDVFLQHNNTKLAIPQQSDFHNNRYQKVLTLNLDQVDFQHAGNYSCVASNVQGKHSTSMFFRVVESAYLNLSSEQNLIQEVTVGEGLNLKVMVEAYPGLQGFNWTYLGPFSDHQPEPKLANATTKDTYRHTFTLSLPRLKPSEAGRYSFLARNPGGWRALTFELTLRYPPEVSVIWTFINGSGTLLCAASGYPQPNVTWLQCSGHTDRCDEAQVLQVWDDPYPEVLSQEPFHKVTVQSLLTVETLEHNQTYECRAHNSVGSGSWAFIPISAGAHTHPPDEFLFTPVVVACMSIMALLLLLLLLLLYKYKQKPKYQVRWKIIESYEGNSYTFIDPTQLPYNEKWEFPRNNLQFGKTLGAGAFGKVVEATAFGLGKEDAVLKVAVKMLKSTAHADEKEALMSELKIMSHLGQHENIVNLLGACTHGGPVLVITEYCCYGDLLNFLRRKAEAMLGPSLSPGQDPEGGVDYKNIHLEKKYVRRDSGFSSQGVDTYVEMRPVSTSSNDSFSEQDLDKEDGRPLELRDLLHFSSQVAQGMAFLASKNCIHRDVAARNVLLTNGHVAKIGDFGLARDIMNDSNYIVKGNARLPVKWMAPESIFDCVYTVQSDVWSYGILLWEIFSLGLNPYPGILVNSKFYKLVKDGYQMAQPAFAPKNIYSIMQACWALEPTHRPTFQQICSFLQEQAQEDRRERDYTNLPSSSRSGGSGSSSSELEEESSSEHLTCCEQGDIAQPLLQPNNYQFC

Compound	IC50 [1]	IC50 (c-fms)
N#Cc1c[nH]c(C(=O)Nc2ccc(C3(CO)CCOCC3)cc2C2=CCCCC2)n1 [Example 20, 4-Cyano-1H-imidazole-2-carboxylic acid [2-cyclohex-1-enyl-4-(4-hydroxymethyl-tetrahydro-pyran-4-yl)-phenyl]-amide]	20 nM	1.8 nM
N#Cc1c[nH]c(C(=O)Nc2ccc(C3(O)CCOCC3)cc2C2=CCCCC2)n1 [Example 27, 4-Cyano-1H-imidazole-2-carboxylic acid [2-cyclohex-1-enyl-4-(4-hydroxy-tetrahydro-pyran-4-yl)-phenyl]-amide]	4.5 nM	2.9 nM
CC1(C)CC=C(c2cc(C3(C(=O)O)CCOCC3)ccc2NC(=O)c2nc(C#N)c[nH]2)CC1 [Example 17, 4-[4-[(4-Cyano-1H-imidazole-2-carbonyl)-amino]-3-(4,4-dimethyl-cyclohex-1-enyl)-phenyl]-tetrahydro-pyran-4-carboxylic acid]	> 300 nM	0.56 nM
CC1(C)CC=C(c2cc(C3(O)CCOCC3)ccc2NC(=O)c2ncc(C#N)[nH]2)CC1 [Example 1, 5-Cyano-1H-imidazole-2-carboxylic acid [2-(4,4-dimethyl-cyclohex-1-enyl)-4-(4-hydroxy-tetrahydro-pyran-4-yl)-phenyl]-amide]	4 nM	0.7 nM
CC1(C)CC=C(c2cc(C3(N4CCNCC4)CCOCC3)ccc2NC(=O)c2ncc(C#N)[nH]2)CC1 [Example 9, 5-Cyano-1H-imidazole-2-carboxylic acid [2-(4,4-dimethyl-cyclohex-1-enyl)-4-(4-piperazin-1-yl-tetrahydro-pyran-4-yl)-phenyl]-amide]	100 nM	1.9 nM
CC1(C)CC=C(c2nc(C3(O)CCOCC3)ccc2NC(=O)c2nc(C#N)c[nH]2)CC1 [Example 33, 4-Cyano-1H-imidazole-2-carboxylic acid [2-(4,4-dimethyl-cyclohex-1-enyl)-6-(4-hydroxy-tetrahydro-pyran-4-yl)-pyridin-3-yl]-amide]	33 nM	3.7 nM
CC1(C)CC=C(c2cc(C3(OCC(=O)O)CCOCC3)ccc2NC(=O)c2ncc(C#N)[nH]2)CC1 [Example 3, {4-[4-[(5-Cyano-1H-imidazole-2-carbonyl)-amino]-3-(4,4-dimethyl-cyclohex-1-enyl)-phenyl]-tetrahydro-pyran-4-yloxy}-acetic acid]		1.7 nM
CC(=O)N1CCC(N)(c2ccc(NC(=O)c3nc(C#N)c[nH]3)c(C3=CCC(C)(C)CC3)c2)CC1 [Example 13, 4-Cyano-1H-imidazole-2-carboxylic acid [4-(1-acetyl-4-amino-piperidin-4-yl)-2-(4,4-dimethyl-cyclohex-1-enyl)-phenyl]-amide acetic acid salt]	8.1 nM	0.8 nM
CC1(C)CC=C(c2cc(C3(N4CCN(CC(=O)O)CC4)CCOCC3)ccc2NC(=O)c2ncc(C#N)[nH]2)CC1 [Example 10, (4-{4-[4-[(5-Cyano-1H-imidazole-2-carbonyl)-amino]-3-(4,4-dimethyl-cyclohex-1-enyl)-phenyl]-tetrahydro-pyran-4-yl}-piperazin-1-yl)-acetic acid trifluoroacetic acid salt]	> 300 nM	7.9 nM
C[C@@H]1CC(O)(c2ccc(NC(=O)c3nc(C#N)c[nH]3)c(C3=CCC(C)(C)CC3)n2)C[C@H](C)O1 (stereo partly drawn) [Example 32, 4-Cyano-1H-imidazole-2-carboxylic acid [2-(4,4-dimethyl-cyclohex-1-enyl)-6-(4-hydroxy-Cis-2,6-dimethyl-tetrahydro-pyran-4-yl)-pyridin-3-yl]-amide]	19 nM	3.2 nM
CC1(C)CC=C(c2cc(C3(c4nn[nH]n4)CCOCC3)ccc2NC(=O)c2nc(C#N)c[nH]2)CC1 [Example 22, 4-Cyano-1H-imidazole-2-carboxylic acid {2-(4,4-dimethyl-cyclohex-1-enyl)-4-[4-(2H-tetrazol-5-yl)-tetrahydro-pyran-4-yl]-phenyl}-amide]	> 300 nM	0.8 nM
CC1(C)CC=C(c2cc(C3(CN4CCOCC4)CCOCC3)ccc2NC(=O)c2nc(C#N)c[nH]2)CC1 [Example 26, 4-Cyano-1H-imidazole-2-carboxylic acid [2-(4,4-dimethyl-cyclohex-1-enyl)-4-(4-morpholin-4-ylmethyl-tetrahydro-pyran-4-yl)-phenyl]-amide]	5.3 nM	3 nM
CC1(C)CC=C(c2cc(C3(O)CC(C)(C)OC(C)(C)C3)ccc2NC(=O)c2nc(C#N)c[nH]2)CC1 [Example 88, 4-Cyano-1H-imidazole-2-carboxylic acid [2-(4,4-dimethyl-cyclohex-1-enyl)-4-(4-hydroxy-2,2,6,6-tetramethyl-tetrahydro-pyran-4-yl)-phenyl]-amide]	6.4 nM	2.4 nM
CC1(C)CC=C(c2cc(C3(C#N)C[C@]4(C)CC[C@](C)(C3)O4)ccc2NC(=O)c2nc(C#N)c[nH]2)CC1 (stereo partly drawn) [Example 94, 4-Cyano-1H-imidazole-2-carboxylic acid [4-(3-cyano-1,5-dimethyl-8-oxa-bicyclo[3.2.1]oct-3-yl)-2-(4,4-dimethyl-cyclohex-1-enyl)-phenyl]-amide]	> 100 nM	82 nM
CC1(C)CC=C(c2cc(C3(O)CCSCC3)ccc2NC(=O)c2nc(C#N)c[nH]2)CC1 [Example 11, 4-Cyano-1H-imidazole-2-carboxylic acid [2-(4,4-dimethyl-cyclohex-1-enyl)-4-(4-hydroxy-tetrahydro-thiopyran-4-yl)-phenyl]-amide]	35 nM	2.9 nM
COCCNC1(c2ccc(NC(=O)c3nc(C#N)c[nH]3)c(C3=CCC(C)(C)CC3)c2)CCOCC1 [Example 4, 4-Cyano-1H-imidazole-2-carboxylic acid {2-(4,4-dimethyl-cyclohex-1-enyl)-4-[4-(2-methoxy-ethylamino)-tetrahydro-pyran-4-yl]-phenyl}-amide]	14 nM	1.8 nM
N#Cc1c[nH]c(C(=O)Nc2ccc(C3(O)CCSCC3)cc2C2=CCCCC2)n1 [Example 14, 4-Cyano-1H-imidazole-2-carboxylic acid [2-cyclohex-1-enyl-4-(4-hydroxy-tetrahydro-thiopyran-4-yl)-phenyl]-amide]	9.5 nM	3.9 nM
N#Cc1c[nH]c(C(=O)Nc2ccc(C3(CN4CCOCC4)CCOCC3)cc2C2=CCCCC2)n1 [Example 21, 4-Cyano-1H-imidazole-2-carboxylic acid [2-cyclohex-1-enyl-4-(4-morpholin-4-ylmethyl-tetrahydro-pyran-4-yl)-phenyl]-amide]	7.9 nM	1.6 nM
CN(C)C(=O)C1(c2ccc(NC(=O)c3nc(C#N)c[nH]3)c(C3=CCCCC3)c2)CCOCC1 [Example 28, 4-Cyano-1H-imidazole-2-carboxylic acid [2-cyclohex-1-enyl-4-(4dimethylcarbamoyl-tetrahydro-pyran-4-yl)-phenyl]-amide]	28 nM	8.4 nM
CN(C)C(=O)C1(c2ccc(NC(=O)c3nc(C#N)c[nH]3)c(C3=CCC(C)(C)CC3)c2)CCOCC1 [Example 29, 4-Cyano-1H-imidazole-2-carboxylic acid [4-(4-dimethylcarbamoyl-tetrahydro-pyran-4-yl)-2-(4,4-dimethyl-cyclohex-1-enyl)-phenyl]-amide]	11 nM	1.6 nM
N#Cc1c[nH]c(C(=O)Nc2ccc(C3(O)CCS(=O)(=O)CC3)cc2C2=CCCCC2)n1 [Example 15, 4-Cyano-1H-imidazole-2-carboxylic acid [2-cyclohex-1-enyl-4-(4-hydroxy-1,1-dioxo-hexahydro-1λ^6-thiopyran-4-yl)-phenyl]-amide]	14 nM	
CC1(C)CC=C(c2cc(C3(O)CCN(CC(F)(F)F)CC3)ccc2NC(=O)c2nc(C#N)c[nH]2)CC1 [Example 90, 4-Cyano-1H-imidazole-2-carboxylic acid {2-(4,4-dimethyl-cyclohex-1-enyl)-4-[4-hydroxy-1-(2,2,2-trifluoro-ethyl)-piperidin-4-yl]-phenyl}-amide]	40 nM	6.5 nM
